Tests used:
[1] = target: T1, B-Raf kinase (Homo sapiens, UniProt P15056); experiment: Biochemical assay for B-Raf.2 (coupled pyruvate kinase/lactate dehydrogenase); conditions: read-out: BRAF.2 IC50
T1 construct: GST (N); purchased Sigma
Experimental: Biochemical Assay for B-Raf.2
Activity of B-Raf kinase (SEQ. ID NO: 2) was determined spectroscopically using a coupled pyruvate kinase/lactate dehydrogenase assay that continuously monitors the ATP hydrolysis-dependent oxidation of NADH (e.g., Schindler et al., Science, 2000, 289, 1938-1942). Assays were conducted in 384-well plates (25 μL final volume) using 2 nM B-Raf (Sigma), 1.5 units pyruvate kinase, 2.1 units lactate dehydrogenase, 1 mM phosphoenol pyruvate, 0.7 mM NADH, 50 nM MEK (SignalChem), and 1 mM ATP in assay buffer (100 mM Tris, pH 7.5, 15 mM MgCl2, 0.5 mM DTT, 0.1% octyl-glucoside, 0.002% (w/v) BSA, and 0.002% Triton X-100). Inhibition of B-Raf was measured by adding serial diluted test compound (final assay concentration of 1% DMSO). A decrease in absorption at 340 nm was monitored hourly for 4 h at 30° C. on a multi-mode microplate reader (BioTek). The reaction rate was calculated using the 2 to 3 h time frame. The reaction rate at each concentration of compound was converted to percent inhibition using controls (i.e., reaction with no test compound and reaction with a known inhibitor) and IC50 values were calculated by fitting a four-parameter sigmoidal curve to the data using Prism (GraphPad software).

[2] = target: T2, B-Raf (V600E) kinase (Homo sapiens, UniProt P15056, V600E); experiment: Biochemical assay for B-Raf (V600E).2 (coupled pyruvate kinase/lactate dehydrogenase); conditions: read-out: BRAF V600E.2 IC50
T2 construct: B-Raf (V600E) residues 416-766 with a; GST (N); purchased SignalChem
T2 sequence (P15056 416-766 V600E): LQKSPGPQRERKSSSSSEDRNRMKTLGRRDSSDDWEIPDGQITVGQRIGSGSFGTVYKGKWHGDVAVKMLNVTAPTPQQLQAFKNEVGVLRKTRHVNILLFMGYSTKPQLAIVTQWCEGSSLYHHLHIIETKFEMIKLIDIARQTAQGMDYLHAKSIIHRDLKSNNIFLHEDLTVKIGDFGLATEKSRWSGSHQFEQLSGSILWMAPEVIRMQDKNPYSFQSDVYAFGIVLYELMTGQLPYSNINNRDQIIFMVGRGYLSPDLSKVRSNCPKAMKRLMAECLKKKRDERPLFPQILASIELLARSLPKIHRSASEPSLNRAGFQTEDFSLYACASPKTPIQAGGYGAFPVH
Experimental: Biochemical Assay for B-Raf (V600E).2
Activity of B-Raf (V600E) (SEQ. ID NO: 4) kinase was determined spectroscopically using a coupled pyruvate kinase/lactate dehydrogenase assay that continuously monitors the ATP hydrolysis-dependent oxidation of NADH (e.g., Schindler et al., Science, 2000, 289, 1938-1942). Assays were conducted in 384-well plates (25 μL final volume) using 0.5 nM B-Raf (deCode), 1.5 units pyruvate kinase, 2.1 units lactate dehydrogenase, 1 mM phosphoenol pyruvate, 0.7 mM NADH, 100 nM MEK (SignalChem), and 1 mM ATP in assay buffer (100 mM Tris, pH 7.5, 15 mM MgCl2, 0.5 mM DTT, 0.1% octyl-glucoside, 0.002% (w/v) BSA, and 0.002% Triton X-100). Inhibition of B-Raf (V600E) was measured by adding serial diluted test compound (final assay concentration of 1% DMSO). A decrease in absorption at 340 nm was monitored hourly for 4 h at 30° C. on a multi-mode microplate reader (BioTek). The reaction rate was calculated using the 3 to 4 h time frame. The reaction rate at each concentration of compound was converted to percent inhibition using controls (i.e., reaction with no test compound and reaction with a known inhibitor) and IC50 values were calculated by fitting a four-parameter sigmoidal curve to the data using Prism (GraphPad software).

[3] = tested on: H2405 cells; experiment: H2405 cell proliferation assay (1), resazurin, 96-well; assay type: cell-based; conditions: Homo sapiens, NCI-H2405, inhibition of cell proliferation
Method in brief: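 This is a resazurin viability readout (excitation 540 nm, emission 600 nm) taken 5-6 h after adding 440 μM resazurin solution, giving IC50 values.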

[4] = target: T2, B-Raf (V600E) kinase; experiment: Biochemical assay for B-Raf (V600E).1 (coupled pyruvate kinase/lactate dehydrogenase); conditions: read-out: BRAF V600E.1 IC50
Method in brief: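 0.03 nM B-Raf(V600E) phosphorylating 30.1 nM MEK at 1 mM ATP, pH 7.5, coupled to PK/LDH, with NADH oxidation followed at 340 nm for 6 h at 30 °C. Rates taken from the 3-4 h window. IC50 from a four-parameter fit of percent inhibition.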

T1 sequence (P15056 416-766): as the sequence (P15056 416-766 V600E) above, with E185V counted along it

Row | IC50 [1] [nM] | IC50 [2] [nM] | IC50 [3] [nM] | IC50 [4] [nM] | Structure (SMILES)
1 | 100 to 500 | ≤ 100 | – | – | CNC(=O)c1cc(-c2cncc(-c3cc(NC(=O)N4CC[C@H](C(C)C)C4)ccc3C)c2)ccn1 [Example 229]
2 | – | – | 500 to 1000 | ≤ 100 | COC(C)(C)CCNC(=O)Nc1cc(-c2cc(OCCO)nc(-c3ccnc4[nH]ccc34)c2)c(C)cc1F [Example 90]
3 | – | – | 1000 to 10000 | > 1000 | Cc1cc(F)c(NC(=O)NCC[C@@H]2CCO2)cc1-c1cc(OCCO)nc(-c2ccnc3[nH]ncc23)c1 [Example 89]
4 | – | – | 100 to 500 | ≤ 100 | COC(C)(C)CCNC(=O)Nc1cc(-c2cc(OCCO)nc(-c3ccnc4[nH]ncc34)c2)c(C)cc1F [Example 91]
5 | 100 to 500 | ≤ 100 | – | – | CNC(=O)c1cc(-c2cncc(-c3cc(NC(=O)N4CC[C@H](C(F)(F)F)C4)ccc3C)c2)ccn1 [Example 228]
6 | ≤ 100 | ≤ 100 | 100 to 500 | – | COC(=O)Nc1cc(-c2cncc(-c3cc(NC(=O)N4CC[C@H](C(F)(F)F)C4)ccc3C)c2)ncn1 [Example 224]
7 | ≤ 100 | ≤ 100 | – | – | Cc1ccc(NC(=O)N2CC[C@H](C)C2)cc1-c1cncc(-c2cc(NC(=O)C3CC3)ncn2)c1 [Example 227]
8 | – | – | 1000 to 10000 | ≤ 100 | Cc1cc(F)c(NC(=O)N2CCC(C)(C#N)CC2)cc1-c1cc(OCCO)nc(-c2ccnc3[nH]ncc23)c1 [Example 92]
9 | – | – | 1000 to 10000 | ≤ 100 | Cc1cc(F)c(NC(=O)N[C@@H]2CC[C@H](F)C2)cc1-c1cc(OCCO)nc(-c2ccnc3[nH]ncc23)c1 [Example 88]
10 | – | – | 100 to 500 | ≤ 100 | Cc1cc(F)c(NC(=O)NCCC2(C)CC2)cc1-c1cc(OCCO)nc(-c2ccnc3[nH]ncc23)c1 [Example 87]
11 | 100 to 500 | 100 to 500 | – | – | CNC(=O)c1cc(-c2cc(-c3cc(NC(=O)N4CC[C@H](C(F)(F)F)C4)ccc3C)ccn2)ccn1 [Example 215]
12 | 100 to 500 | ≤ 100 | 100 to 500 | – | CNC(=O)c1cc(-c2cc(-c3cc(NC(=O)N4CC[C@H](C(C)C)C4)ccc3C)ccn2)ccn1 [Example 225]
13 | 100 to 500 | 100 to 500 | 500 to 1000 | – | CNC(=O)c1cc(-c2cncc(-c3cc(NC(=O)N4CC[C@H](C(F)(F)F)C4)ccc3C)c2)ncn1 [Example 220]
14 | 500 to 1000 | ≤ 100 | 500 to 1000 | – | CNC(=O)c1cc(-c2cncc(-c3cc(NC(=O)N4CC[C@H](C(C)C)C4)ccc3C)c2)ncn1 [Example 226]
15 | – | – | 100 to 500 | ≤ 100 | COC(=O)Nc1cc(-c2cccc(-c3cc(NC(=O)NCCC(C)(C)OC)c(F)cc3C)c2)ccn1 [Example 85]
